The structures appear in SMILES notation. Where a name gives a salt, the structure may show the parent alone.

As for `Cc1cccc(C)c1C(=NC(=NC(C)C)N1CCCCC1C)Nc1ccc(F)cc1` (centres unmarked) (as salt: hydrochloride) [Example 99, N-(4-fluoro-phenyl)-N′-[isopropylimino-(2-methyl-piperidin-1-yl)-methyl]-2,6-dimethyl-benzamidine], the melting point (usually the temperature of the solid-liquid transition) is 208 to 210 °C (dec.). `Fc1ccc(NC(=CC(=NC2CC2)N2CCCCO2)c2ccccc2)cc1` (as salt: nitrate) [Example 110, (3-cyclopropylimino-3-[1,2]oxazinan-2-yl-1-phenyl-propenyl)-(4-fluoro-phenyl)-amine] yielded a melting point of 82 to 84 °C.

Compound `C(=C(Nc1ccccc1)c1ccccc1)C(=Nc1ccccc1)N1CCCC1` (as salt: nitrate) [Example 87, (3-phenylimino-3-pyrrolidin-1-yl-1-phenyl-propenyl)-phenylamine] yielded a melting point of 184 to 186 °C. The value for `Cc1ccccc1C(=CC(=NC1CC1)N1CCCCO1)Nc1ccc(F)cc1` (as salt: hydrochloride) [Example 107, (3cyclopropylimino-3-[1,2]oxazinan-2-yl-1-o-tolyl-propenyl)-(4-fluoro-phenyl)-amine] was 140 to 142 °C (dec.); that for `Cc1cccc(C)c1C(=NC(=Nc1ccccc1)N1CCC(O)CC1C)Nc1ccc(F)cc1` (centres unmarked) (as salt: hydrochloride) [Example 72, N-(4-fluoro-phenyl)-N′-[(4-hydroxy-2-methyl-piperidin-1-yl)-phenylimino-methyl]-2,6-dimethyl-benzamidine] was 163 to 166 °C (dec.); that for `Cc1cccc(C)c1C(=NC(=Nc1ccc(F)cc1)N1CCCCO1)Nc1ccc(F)cc1` (as salt: hydrochloride) [Example 50, N-(4-fluoro-phenyl)-N′-[(4-fluoro-phenylimino)-[1,2]oxazinan-2-yl-methyl]-2,6-dimethyl-benzamidine] was 213 to 214 °C.

Take `Cc1cccc(C)c1C(=Nc1ccc(F)cc1)NC(=NC1CC1)N1CCCCC1C` (centres unmarked) (as salt: hydrochloride) [Example 103, N-[cyclopropylimino-(2-methyl-piperidin-1-yl)-methyl]-N′-(4-fluoro-phenyl)-2,6-dimethyl-benzamidine]: the melting point is 219 to 220 °C.

Compound `CC1CCCCN1C(=Nc1ccccc1)NC(=Nc1ccc(F)cc1)c1ccccc1Cl` (centres unmarked) (as salt: hydrochloride) [Example 37, N-[(2-chloro-phenyl)-(4-fluoro-phenylimino)-methyl]2-methyl-N′-phenyl-piperidine-1-carboxamidine] displayed a melting point of 145 to 147 °C. In the case of `COc1ccc(NC(=CC(=Nc2ccccc2)N2CCCCO2)c2ccccc2C)cc1` (as salt: hydrochloride) [Example 94, (3-phenylimino-3-[1,2]oxazinan-2-yl-1-o-tolyl-propenyl)-(4-methoxy-phenyl)-amine], the melting point is 192 to 194 °C. Then `Cc1ccccc1C(=NC(=Nc1ccccc1)N1CCCC(O)C1)Nc1ccc(F)cc1` (centres unmarked) (as salt: hydrochloride) [Example 66, N-(4-fluoro-phenyl)-N′-[(3-hydroxy-piperidin-1-yl)-phenylimino-methyl]-2-methyl-benzamidine], with > 150 °C.

In turn, `Cc1cccc(C)c1C(=Nc1ccccc1)NC(=Nc1ccccc1)N1CCCC1` (as salt: hydroiodid) [Example 31, N-[(2,6-dimethyl-phenyl)-phenylimino-methyl]-N′-phenyl-pyrrolidine-1-carboxamidine] displayed a melting point of 255 to 257 °C.

Regarding `OC1CCCN(C(=Nc2ccccc2)NC(=Nc2ccccc2)c2ccccc2)C1` (centres unmarked) (as salt: nitrate) [Example 38, N-[(3-hydroxy-piperidin-1-yl)-phenylimino-methyl]-N′-phenyl-benzamidine], the melting point lay within 189 to 192 °C. The value for `Cc1cccc(C)c1C(=Nc1ccc(F)cc1)NC(=NC1CCC1)N1CCCCC1C` (centres unmarked) (as salt: hydrochloride) [Example 102, N-[cyclobutylimino-(2-methyl-piperidin-1-yl)-methyl]-N′-(4-fluoro-phenyl)-2,6-dimethyl-benzamidine] was 136 to 138 °C; that for `CC1CCCC(C)N1C(=Nc1ccc(F)cc1)NC(=Nc1ccc(F)cc1)c1c(F)cccc1F` (centres unmarked) (as salt: nitrate) [Example 52, N-[(2,6-dimethyl-piperidin-1-yl)-(4-fluoro-phenylimino)-methyl]-2,6-difluoro-N′-(4-fluoro-phenyl)-benzamidine] was 172 to 174 °C; that for `Cc1cccc(C)c1C(=Nc1ccc(F)cc1)NC(=Nc1ccccc1)N1CCCCCC1` (as salt: hydrochloride) [Example 53, N-(azepan-1-yl-phenylimino-methyl)-N′-(4-fluoro-phenyl)-2,6-dimethyl-benzamidine] was 243 to 245 °C. Then `Cc1ccccc1C(=NC(=Nc1ccccc1)N1CCC(O)CC1)Nc1ccc(F)cc1` (as salt: hydrochloride) [Example 26, N-(4-fluoro-phenyl)-N′-[(4-hydroxy-piperidin-1-yl)-phenylimino-methyl]-2-methyl-benzamidine], with 228 to 230 °C (dec.). The value for `Cc1ccccc1C(=NC(=Nc1ccncc1)N1CCCCC1C)Nc1ccc(F)cc1` (centres unmarked) (as salt: nitrate) [Example 40, N-(4-fluoro-phenyl)-2-methyl-N′-[(2-methyl-piperidin-1-yl)-(pyridin-4-ylimino)-methyl]-benzamidine] was 209 to 210 °C (dec.); that for `Cc1cccc(C)c1C(=Nc1ccc(F)cc1)NC(=Nc1ccccc1)N1C(C)CCCC1C` (centres unmarked) (as salt: hydrochloride) [Example 59, N-[(2,6-dimethyl-piperidin-1-yl)-phenylimino-methyl]-N′-(4-fluoro-phenyl)-2,6-dimethyl-benzamidine] was 165 to 167 °C (dec.). For `Fc1ccc(N=C(NC(=Nc2ccc(F)cc2)N2CCCCCC2)c2c(F)cccc2F)cc1` (as salt: hydrochloride) [Example 57, N-[azepan-1-yl-(4-fluoro-phenylimino)-methyl]-2,6-difluoro-N′-(4-fluoro-phenyl)-benzamidine], the melting point was 216 to 218 °C. Turning to `COc1ccc(NC(=NC(=Nc2ccccc2)N2CCCCC2C)c2ccccc2C)cc1` (centres unmarked) (as salt: hydrochloride) [Example 60, N-(4-methoxy-phenyl)-2-methyl-N′-[(2-methyl-piperidin-1-yl)-phenylimino-methyl]-benzamidine], the melting point was 162 to 164 °C (dec.). Compound `Cc1ccccc1C(=NC(=Nc1ccccc1)C1(C)CCCCC1)Nc1ccc(F)cc1` [Example 11, N-(4-Fluoro-phenyl)-2-methyl-N′-[(1-methyl-cyclohexyl)-phenylimino-methyl]-benzamidine] had a melting point of 210 to 211 °C.

Turning to `CC1CCCCN1C(N=C(Nc1ccc(F)cc1)c1c(F)cccc1F)=Nc1ccccc1` (centres unmarked) (as salt: nitrate) [Example 44, 2,6-difluoro-N-(4-fluoro-phenyl)-N′-[(2-methyl-piperidin-1-yl)-phenylimino-methyl]-benzamidine], the melting point is 163 to 165 °C (dec.). Then `COc1ccc(NC(=NC(=Nc2ccccc2)N2CCCC2)c2ccccc2)cc1` (as salt: hydrochloride) [Example 15, N-(4-methoxy-phenyl)-N′-(phenylimino-pyrrolidin-1-yl-methyl)-benzamidine], with 244 to 245 °C; and `Cc1ccccc1C(=NC(=Nc1ccccc1)N1CCC(=O)CC1C)Nc1ccc(F)cc1` (centres unmarked) (as salt: hydrochloride) [Example 69, N-(4-fluoro-phenyl)-2-methyl-N′-[(2-methyl-4-oxo-piperidin-1-yl)-phenylimino-methyl]-benzamidine], with > 143 °C; and `COc1ccc(N=C(NC(=Nc2ccccc2)N2CCCCCC2)c2ccccc2)cc1` (as salt: hydroiodid) [Example 18, N-(azepan-1-yl-phenylimino-methyl)-N′-(4-methoxy-phenyl)-benzamidine], with 241 to 243 °C. Consider `c1ccc(N=C(NC(=Nc2ccccc2)N2CCCCCC2)c2ccccc2)cc1` (as salt: hydroiodid) [Example 17, N-(azepan-1-yl-phenylimino-methyl)-N′-phenyl-benzamidine], for which the melting point fell in the range of 228 to 229 °C. The value for `Cc1ccccc1C(=Nc1ccc(F)cc1)NC(=Nc1ccccc1Cl)N1CCCCC1C` (centres unmarked) (as salt: hydrochloride) [Example 79, N-[(2-chloro-phenylimino)-(2-methyl-piperidin-1-yl)-methyl]-N′-(4-fluoro-phenyl)-2-methyl-benzamidine] was 208 to 210 °C. The value for `Fc1ccc(NC(=NC(=Nc2ccccc2)N2CCCC2)c2ccccc2)cc1` (as salt: hydrochloride) [Example 2, N-(4-Fluoro-phenyl)-N′-(phenylimino-pyrrolidin-1-yl-methyl)-benzamidine] was 259 to 260 °C (dec.). The compound `Cc1ccccc1C(=NC(=Nc1ccccc1)N1CCCC1)Nc1ccccc1` (as salt: hydrochloride) [Example 20, 2-methyl-N-phenyl-N′-(phenylimino-pyrrolidin-1-yl-methyl)-benzamidine] yielded a melting point of 191 to 192 °C. Regarding `Cc1cccc(C)c1C(=Nc1ccc(F)cc1)NC(=Nc1ccc(F)cc1)N1CCCCCC1` (as salt: hydrochloride) [Example 49, N-[azepan-1-yl-(4-fluoro-phenylimino)-methyl]-N′-(4-fluoro-phenyl)-2,6-dimethyl-benzamidine], the melting point was in the range of 155 to 157 °C. The compound `Cc1cccc(C)c1C(=NC(=Nc1ccccc1)N1CCC(O)CC1C)Nc1ccc(F)cc1` (centres unmarked) (as salt: hydrochloride) [Example 82, N-(4-fluoro-phenyl)-N′-[(4-hydroxy-2-methyl-piperidin-1-yl)-phenylimino-methyl]-2,6-dimethyl-benzamidine] had a melting point of 169 to 172 °C. Then `Cc1cccc(C)c1C(=NC(=Nc1ccccc1)N1CCCCO1)Nc1ccc(F)cc1` (as salt: hydrochloride) [Example 61, N-(4-fluoro-phenyl)-2,6-dimethyl-N′-([1,2]oxazinan-2-yl-phenylimino-methyl)-benzamidine], with 212 to 214 °C (dec.).
